The text below walks through data of patent US12539311B2, “Short-acting heparin-based anticoagulant compounds and methods” (The University of North Carolina at Chapel Hill, priority 2017, dated 2026).

As usually defined, the Kd is the equilibrium constant for the complex coming apart.

Data set [1] has as its target T1, antithrombin (AT) (Homo sapiens, UniProt P01008). The data set is described as follows: AT-binding affinity analysis using isothermal titration calorimetry (ITC). (In general: ITC needs no label: the signal is the heat of the interaction.)
A further data set addresses T2, platelet factor 4 (Homo sapiens, UniProt P02776).
T2 sequence (P02776 32-101): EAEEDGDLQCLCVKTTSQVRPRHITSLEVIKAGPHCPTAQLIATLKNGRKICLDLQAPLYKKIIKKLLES
Nature of the data set: Risk of heparin-induced thrombocytopenia (HIT) / binding to platelet factor 4. The note with it: expected from size (smaller than 12-mers do not bind platelet factor 4).

A further data set has as its system FXa. Nature of the data set: Determination of anti-FXa effect in vivo. Also on record: species or system Lewis rats. Conditions: rat, intravenous; for persistence of anti-FXa effect in vivo: blood drawn 0.5-8 hours. The protocol: (§1) All studies were performed under an Institutional Animal Care and Use Committee (IACUC)-approved protocol at the University of North Carolina, following Public Health Service guidelines for laboratory animal care and use. Sixteen 400-g Lewis rats were equally divided into four groups. […] Blood was then drawn at specified time points (0.5, 1, 2, 4, 8 hours) after the compounds had been administered, with one sample taken just before administration. 0.8 mL of blood was drawn from the contralateral femoral/saphenous vein into 150 mM citrate at 0.5, 1, 2, 4 and 8 hours following injection of the compounds, with one sample drawn immediately prior to injection. The samples were centrifuged to obtain approximately 400 μL of plasma. The blood samples were subjected to FXa activity analysis. Saline was given periodically subcutaneously to maintain fluid volume.

The nature of data set [2]: Clearance of oligosaccharides from the drug-treated animals (plasma concentration against time). It is filed as in vivo, Lewis rats. The protocol: as §1
Using a calibration curve generated for each compound, the concentration of compound in the reaction mixture was read off for each corresponding FXa activity percentage. The average plasma concentration and standard deviation between the 4 rats in each group were calculated for each time point; these values were used to plot a graph of plasma concentration against time.

The target in data set [3] is T1, antithrombin (AT). The note with it: affinity coelectrophoresis, reported in a previous publication; read-out: Binding affinity (Kd) to AT; cited from earlier work.
The target in data set [4] is T1, antithrombin (AT). Conditions: reported in a previous publication, method not given, cited from earlier work.

Read-outs that look alike come from different tables or passages of the source.

T1 sequence (P01008 33-464): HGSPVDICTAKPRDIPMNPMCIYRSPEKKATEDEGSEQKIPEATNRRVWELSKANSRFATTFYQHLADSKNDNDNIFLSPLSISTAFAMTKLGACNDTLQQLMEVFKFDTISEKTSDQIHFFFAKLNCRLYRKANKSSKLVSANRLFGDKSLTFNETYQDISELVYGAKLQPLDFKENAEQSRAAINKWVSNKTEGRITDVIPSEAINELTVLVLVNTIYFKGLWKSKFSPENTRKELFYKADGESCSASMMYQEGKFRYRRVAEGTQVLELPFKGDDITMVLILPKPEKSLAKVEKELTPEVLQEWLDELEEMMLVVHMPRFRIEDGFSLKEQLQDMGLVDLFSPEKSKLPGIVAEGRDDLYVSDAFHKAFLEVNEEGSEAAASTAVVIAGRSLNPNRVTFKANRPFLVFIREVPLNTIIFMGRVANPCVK

Turning to `O=C(O)C1OC(OC2C(COS(=O)(=O)O)OC(OC3C(C(=O)O)OC(OC4C(COS(=O)(=O)O)OC(OC5C(C(=O)O)OC(Oc6ccc([N+](=O)[O-])cc6)C(O)C5O)C(NS(=O)(=O)O)C4OS(=O)(=O)O)C(OS(=O)(=O)O)C3O)C(NS(=O)(=O)O)C2O)C(O)C(O)C1OC1OC(COS(=O)(=O)O)C(O)C(O)C1NS(=O)(=O)O` (centres unmarked) [Comp 2, GlcNS6S-GlcA-GlcNS6S-IdoA2S-GlcNS3S6S-GlcA-pNP], on antithrombin (AT) [1] (ITC), the “Binding affinity (Kd) to AT” value was “No binding”.
Same read-out and setting: with `O=C(O)C1OC(OC2C(CO)OC(OC3C(C(=O)O)OC(OC4C(CO)OC(OC5C(C(=O)O)OC(OC6C(CO)OC(OC7C(C(=O)O)OC(Oc8ccc([N+](=O)[O-])cc8)C(O)C7O)C(NS(=O)(=O)O)C6O)C(OS(=O)(=O)O)C5O)C(NS(=O)(=O)O)C4OS(=O)(=O)O)C(OS(=O)(=O)O)C3O)C(NS(=O)(=O)O)C2O)C(O)C(O)C1OC1OC(CO)C(O)C(O)C1NS(=O)(=O)O` (centres unmarked) [Comp 4] the entry was “No binding^c”.
As to `O=C(O)C1OC(OC2C(COS(=O)(=O)O)OC(OC3C(C(=O)O)OC(OC4C(COS(=O)(=O)O)OC(OC5C(C(=O)O)OC(OC6C(COS(=O)(=O)O)OC(OC7C(C(=O)O)OC(Oc8ccc([N+](=O)[O-])cc8)C(O)C7O)C(NS(=O)(=O)O)C6O)C(OS(=O)(=O)O)C5O)C(NS(=O)(=O)O)C4OS(=O)(=O)O)C(OS(=O)(=O)O)C3O)C(NS(=O)(=O)O)C2O)C(O)C(O)C1OC1OC(COS(=O)(=O)O)C(O)C(O)C1NS(=O)(=O)O` (centres unmarked) [Comp 5], the “risk of HIT” value on platelet factor 4 is “very low risk of HIT”. Besides, in the data set with FXa, the “persistence of anti-FXa effect in vivo” value was “diminished after 4 hours”. The “anti-FXa potency in vivo” value in the data set with FXa (within 30 min after administration) was “comparable anti-FXa potency to that of fondaparinux and compound 11”. This molecule registered a Kd at antithrombin (AT) [1] (ITC) of 5.1 ± 1.4 nM. Moreover, the “binding to AT (in words)” value on antithrombin (AT) [1] (listed as Compound 5) was “binds to AT”; on antithrombin (AT) [1] (listed as compound 5) it was “binds to AT tightly”. The “clearance rate faster than that of fondaparinux” value in data set [2] (in a rat or mouse model) was “at least 50%”. The “clearance in vivo (in words)” value in data set [2] (rat, compared with fondaparinux and compound 11) is listed as “cleared faster from the animal in the first 2 hours”.
`CC(=O)NC1C(OC2C(C(=O)O)OC(OC3C(COS(=O)(=O)O)OC(OC4C(C(=O)O)OC(OC5C(COS(=O)(=O)O)OC(OC6C(C(=O)O)OC(OC7C(COS(=O)(=O)O)OC(OC8C(C(=O)O)OC(Oc9ccc([N+](=O)[O-])cc9)C(O)C8O)C(NS(=O)(=O)O)C7O)C(OS(=O)(=O)O)C6O)C(NS(=O)(=O)O)C5O)C(OS(=O)(=O)O)C4O)C(NS(=O)(=O)O)C3OS(=O)(=O)O)C(O)C2O)OC(COS(=O)(=O)O)C(O)C1O` (centres unmarked) [Comp 11, reference compound]: on antithrombin (AT) [3], the Kd was 8 ± 3 nM. Also, the “persistence of anti-FXa effect in vivo” value in the data set with FXa was “persisted after 8 hours”.
Turning to `O=C(O)C1OC(OC2C(COS(=O)(=O)O)OC(OC3C(C(=O)O)OC(OC4C(COS(=O)(=O)O)OC(OC5C(C(=O)O)OC(Oc6ccc([N+](=O)[O-])cc6)C(O)C5O)C(NS(=O)(=O)O)C4O)C(OS(=O)(=O)O)C3O)C(NS(=O)(=O)O)C2OS(=O)(=O)O)C(O)C(O)C1OC1OC(COS(=O)(=O)O)C(O)C(O)C1NS(=O)(=O)O` (centres unmarked) [GlcA2S-containing 6-mer, GlcNS6S-GlcA-GlcNS3S6S-GlcA2S-GlcNS6S-GlcA-pNP], the “Binding affinity (Kd) to AT” value on antithrombin (AT) [4] is given as “No binding^d”.
`O=C(O)C1OC(OC2C(COS(=O)(=O)O)OC(OC3C(C(=O)O)OC(OC4C(COS(=O)(=O)O)OC(OC5C(C(=O)O)OC(Oc6ccc([N+](=O)[O-])cc6)C(O)C5O)C(NS(=O)(=O)O)C4O)C(O)C3O)C(NS(=O)(=O)O)C2OS(=O)(=O)O)C(O)C(O)C1OC1OC(COS(=O)(=O)O)C(O)C(O)C1NS(=O)(=O)O` (centres unmarked) [IdoA-containing 6-mer]: the Kd at antithrombin (AT) [4] (read-out: Binding affinity (Kd) to AT) was 32.6 ± 5.3 nM.
